From US11026419B2, “Silver- and copper-chelating ionic liquids, polymers, and gels, and uses thereof” (Massachusetts Institute of Technology, priority 2016, dated 2021)

Tests used:
PA14 = experiment: Turbidity of PA14 solutions as indication of bacterial growth; format: cell-based, Pseudomonas aeruginosa; settings: PA14 solution with 10 uL IL (FIG. 3)
HEK cells = experiment: Cell viability assay, LDH release; format: cell-based, human; settings: 24 hours treatment, at the higher concentrations tested
Description: The toxicity of the compounds towards human cells was tested using HEK cell lines (FIG. 5), which were cultured in DMEM medium and 10% Fetal Bovine Serum at 37° C. in 5% CO2. 5×10^4 cells were seeded into 96-well plates 24 hours before treatment. Incremental concentrations of ionic liquids (diluted 2×) were added into the wells for another 24 hours. The release of the cytosolic enzyme lactate dehydrogenase (LDH) was then measured, following the manual of Pierce LDH Cytotoxicity Assay Kit (Thermofisher, Mass., USA). Untreated cells (live cells) and cells treated with lysis buffer for 2 hours (dead cells) were used as the reference for normalization. All experiments were performed in triplicate. […] Experiments were repeated using an MTX assay with the trend in the results matching those of the LDH assay.

[1] = tested on: Pseudomonas aeruginosa (PA14); experiment: Antimicrobial sensitivity, colony forming units (CFU) of PA14; format: cell-based; settings: PA14, compared with control samples (FIG. 2)
Source text: Antimicrobial sensitivity experiments used Pseudomonas aeruginosa (PA14, FIG. 2) a gram-negative monoflagellated bacterium. This is a model bacterium for such studies as it is […] and is an opportunistic human pathogen, colonizing immunocompromised patients, such as those with cystic fibrosis, cancer, or AIDS [15].

Substance | turbidity / bacteria growth (PA14) | reduced cell viability (HEK cells) | drop in the colony-forming unit (CFU) [1]
N-hexylethylenediaminium bis(trifluoroethanesulfonyl)amide [[HHex][Tf2N]] | no turbidity | ~50% | ~3 orders of magnitude
N-butyl(ethylenediaminium) bis(trifluoroethanesulfonyl)amide [[HButylen][Tf2N]] |  | ~50% | 
